Laboratory results reported in patent US8426202B2, “Cell culture medium” (Cellca GmbH, priority 2005, dated 2013).

What was measured:
[1] = test system: CHO cell line that expresses an antibody; assay: Fed-batch experiment with the substances according to the invention (Example 2, Table 2); assay type: cell-based, Chinese hamster; design: Viabil.: concentration or dose not given beside the values
Description: (§1) Feed took place at regular intervals.

[2] = test system: CHO cell line that expresses an antibody; assay: Batch experiment with the substances according to the invention (Example 1); assay type: cell-based, Chinese hamster; conditions: batch mode, substance 0.5-1 g/l, basal medium glucose 4.7 g/l, glutamine […]
Description: Cells were stored in the gas phase of liquid nitrogen. One to two ampoules were thawed in nutrient medium preheated to 37° C. and transferred to spinner bottles, shaking flasks or T-bottles. In the first few days of cultivation the medium was changed, depending on the clone.
Depending on the clone, cells were split either every second day or every third day or after two and three days alternately into new medium, i.e. a portion of the cell suspension was removed from culture and a smaller portion of the cell suspension was reused as inoculum for the next culture. This inoculum was made up with fresh prewarmed nutrient medium. Cells were incubated at 37° C. in an incubator with a CO2 atmosphere. An alternative for incubating cells was cultivation in an incubation chamber at 37° C., in this way cells were held in culture for several passages. A passage means a cultivation time of two to three days. At various points of time, cell suspension was taken from strain maintenance and used as inoculum for experiments. The experiments were carried out in various cultivation systems, for example in spinner bottles, T-bottles, shaking flasks, culture tubes or in controlled bioreactors.
as §1

Structure (SMILES): CC(=O)C(=O)[O-].[Na+] [Sodium pyruvate]
- Total Cell Density TCD ([1]; day 0, fed-batch): 1.5 E5/ml
- Viabil. ([1]; day 0, fed-batch): 91%
- Viable Cell Density (VCD) ([1]; day 0, fed-batch): 1.37 E5/ml
- Total Cell Density TCD ([1]; day 2, fed-batch): 3.2 E5/ml
- Viabil. ([1]; day 2, fed-batch): 97%
- Viable Cell Density (VCD) ([1]; day 2, fed-batch): 3.1 E5/ml
- Total Cell Density TCD ([1]; day 5, fed-batch): 13.7 E5/ml
- Viabil. ([1]; day 5, fed-batch): 99%
- Viable Cell Density (VCD) ([1]; day 5, fed-batch): 13.5 E5/ml
- Total Cell Density TCD ([1]; day 8, fed-batch): 46 E5/ml
- Viabil. ([1]; day 8, fed-batch): 90%
- Viable Cell Density (VCD) ([1]; day 8, fed-batch): 41.5 E5/ml
- Gln ([2]; day 0): 1.53 mM
- Glucose ([2]; day 0): 4.69 g/L
- Lactate ([2]; day 0): 0 g/L
- NH4 ([2]; day 0): 1.22 mM
- Specific Glutamin consumption (Gln/VCD) ([2]; day 0): 1.49
- Specific ammonia production (NH4/VCD) ([2]; day 0): 1.18
- Specific glucose consumption (Gluc/VCD) ([2]; day 0): 4.55
- Specific lactate production (Lac/VCD) ([2]; day 0): 0.00
- Total Cell Density TCD ([2]; day 0): 1.07 E5/ml
- Viabil. ([2]; day 0): 96%
- Viable Cell Density (VCD) ([2]; day 0): 1.03 E5/ml
- Gln ([2]; day 3): 1.02 mM
- Glucose ([2]; day 3): 4.55 g/L
- Lactate ([2]; day 3): 0.38 g/L
- NH4 ([2]; day 3): 1.72 mM
- Specific Glutamin consumption (Gln/VCD) ([2]; day 3): 0.13
- Specific ammonia production (NH4/VCD) ([2]; day 3): 0.22
- Specific glucose consumption (Gluc/VCD) ([2]; day 3): 0.59
- Specific lactate production (Lac/VCD) ([2]; day 3): 0.05
- Total Cell Density TCD ([2]; day 3): 7.8 E5/ml
- Viabil. ([2]; day 3): 99%
- Viable Cell Density (VCD) ([2]; day 3): 7.7 E5/ml
- Gln ([2]; day 6): 0.25 mM
- Glucose ([2]; day 6): 2.81 g/L
- Lactate ([2]; day 6): 1.32 g/L
- NH4 ([2]; day 6): 1.91 mM
- Specific Glutamin consumption (Gln/VCD) ([2]; day 6): 0.01
- Specific ammonia production (NH4/VCD) ([2]; day 6): 0.04
- Specific glucose consumption (Gluc/VCD) ([2]; day 6): 0.06
- Specific lactate production (Lac/VCD) ([2]; day 6): 0.03
- Total Cell Density TCD ([2]; day 6): 45 E5/ml
- Viabil. ([2]; day 6): 98%
- Viable Cell Density (VCD) ([2]; day 6): 44 E5/ml
- Gln ([2]; day 8): 0.38 mM
- Glucose ([2]; day 8): 1.79 g/L
- Lactate ([2]; day 8): 1.34 g/L
- NH4 ([2]; day 8): 2.23 mM
- Specific Glutamin consumption (Gln/VCD) ([2]; day 8): 0.02
- Specific ammonia production (NH4/VCD) ([2]; day 8): 0.10
- Specific glucose consumption (Gluc/VCD) ([2]; day 8): 0.08
- Specific lactate production (Lac/VCD) ([2]; day 8): 0.06
- Total Cell Density TCD ([2]; day 8): 24.5 E5/ml
- Viabil. ([2]; day 8): 88%
- Viable Cell Density (VCD) ([2]; day 8): 21.6 E5/ml
- Gln ([2]; day 11): 0.49 mM
- Glucose ([2]; day 11): 0.63 g/L
- Lactate ([2]; day 11): 1.93 g/L
- NH4 ([2]; day 11): 3.06 mM
- Specific Glutamin consumption (Gln/VCD) ([2]; day 11): 0.05
- Specific ammonia production (NH4/VCD) ([2]; day 11): 0.30
- Specific glucose consumption (Gluc/VCD) ([2]; day 11): 0.06
- Specific lactate production (Lac/VCD) ([2]; day 11): 0.19
- Total Cell Density TCD ([2]; day 11): 24.2 E5/ml
- Viabil. ([2]; day 11): 43%
- Viable Cell Density (VCD) ([2]; day 11): 10.3 E5/ml
